Assay results from US6548494B1, “Tricyclic inhibitors of poly(ADP-ribose) polymerases” (Agouron Pharmaceuticals, Inc., priority 1999, dated 2003).
Several values for one entry are separate records, joined by “and”; a condition that tells them apart may be missing. Identical values can stand only once. Like-named read-outs stand apart in the source and are kept apart here.

What was measured:
[1] = target: purified PARP protein (Homo sapiens, UniProt P09874); test: PARP enzyme inhibition assay; format: biochemical; conditions: 20 nM purified PARP (5 nM for tight-binding inhibitors), 500 μM NAD+, 25° C., several values in one cell = repeat determinations
Chain of purified PARP protein (P09874 whole entry): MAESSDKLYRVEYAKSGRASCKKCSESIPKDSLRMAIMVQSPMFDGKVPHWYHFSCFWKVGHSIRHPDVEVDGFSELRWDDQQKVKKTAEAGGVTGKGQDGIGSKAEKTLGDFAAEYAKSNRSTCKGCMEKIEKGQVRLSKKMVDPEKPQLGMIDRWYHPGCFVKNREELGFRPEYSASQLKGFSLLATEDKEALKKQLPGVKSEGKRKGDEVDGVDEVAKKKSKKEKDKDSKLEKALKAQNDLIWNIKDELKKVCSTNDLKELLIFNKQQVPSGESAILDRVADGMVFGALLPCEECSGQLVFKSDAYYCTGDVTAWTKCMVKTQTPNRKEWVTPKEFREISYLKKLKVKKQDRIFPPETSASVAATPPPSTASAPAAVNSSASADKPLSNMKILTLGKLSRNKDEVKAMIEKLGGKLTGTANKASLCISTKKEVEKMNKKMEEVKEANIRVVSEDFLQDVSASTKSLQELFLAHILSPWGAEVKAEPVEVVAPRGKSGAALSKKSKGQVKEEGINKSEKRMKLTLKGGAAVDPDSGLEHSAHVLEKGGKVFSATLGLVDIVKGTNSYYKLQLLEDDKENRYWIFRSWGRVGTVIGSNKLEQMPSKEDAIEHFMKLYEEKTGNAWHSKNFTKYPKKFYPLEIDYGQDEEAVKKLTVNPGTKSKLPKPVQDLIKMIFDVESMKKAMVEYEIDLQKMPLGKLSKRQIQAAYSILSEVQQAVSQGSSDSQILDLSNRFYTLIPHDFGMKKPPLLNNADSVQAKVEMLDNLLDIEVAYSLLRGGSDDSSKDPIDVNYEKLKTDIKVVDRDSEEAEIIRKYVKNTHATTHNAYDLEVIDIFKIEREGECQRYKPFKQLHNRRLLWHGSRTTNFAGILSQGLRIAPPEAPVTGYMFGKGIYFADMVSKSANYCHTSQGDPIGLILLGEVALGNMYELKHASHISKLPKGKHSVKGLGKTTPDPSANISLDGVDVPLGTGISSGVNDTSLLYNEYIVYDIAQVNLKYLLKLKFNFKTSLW

[2] = read-out: Inhibition Constant Ki

Row | SMILES | Ki [1, 2] | melting point | Ki ([1]; Inhibition Constant Ki (nM)) [nM]
1 | O=C1NCCn2c(-c3ccccn3)cc3cccc1c32 [Example 40, 6-Pyridin-2-yl-3,4-dihydro-2H-[1,4]diazepino[6,7,1-hi]indol-1-one] | 68 nM | 173 to 175 °C | –
2 | O=C1NCCn2c(-c3cccc(Oc4ccc(Cl)cc4)c3)nc3cccc1c32 [Example 62, 1-[3-(4-Chlorophenoxy)-phenyl]-8,9-dihydro-7H-2,7,9a-triaza-benzo[cd]azulen-6-one] | 6.1 nM | 211 to 212 °C | –
3 | O=C1NCCn2c(-c3cccc(Oc4ccc(Cl)c(Cl)c4)c3)nc3cccc1c32 [Example 63, 1-[3-(3,4-Dichlorophenoxy)-phenyl]-8,9-dihydro-7H-2,7,9a-triaza-benzo[cd]azulen-6-one] | 13 nM | 252 to 254 °C (dec.) | –
4 | COc1ccc(Oc2cccc(-c3nc4cccc5c4n3CCNC5=O)c2)cc1 [Example 64, 1-[3-(4-Methoxyphenoxy)-phenyl]-8,9-dihydro-7H-2,7,9a-triaza-benzo[cd]azulen-6-one] | 6.2 nM | 196 to 198 °C | –
5 | O=C1NCCn2c(-c3cccc(Oc4cc(Cl)cc(Cl)c4)c3)nc3cccc1c32 [Example 65, 1-[3-(3,5-Dichlorophenoxy)-phenyl]-8,9-dihydro-7H-2,7,9a-triaza-benzo[cd]azulen-6-one] | 11 nM | 258 to 259 °C (dec.) | –
6 | O=C(c1ccccc1)c1cccc(-c2nc3cccc4c3n2CCNC4=O)c1 [Example 66, 1-(3-Benzoylphenyl)-8,9-dihydro-7H-2,7,9a-triaza-benzo[cd]azulen-6-one] | 8.9 nM | 237 to 238 °C (dec.) | –
7 | O=C1NCCn2c(-c3cccc(C4OCCO4)c3)nc3cc(F)cc1c32 [Example 68, 1-(3-[1,3]Dioxolan-2-yl-phenyl)-4-fluoro-8,9-dihydro-7H-2,7,9a-triaza-benzo[cd]azulen-6-one] | 5.8 nM | 262 to 264 °C (dec.) | –
8 | CN(C)Cc1cccc(-c2nc3cc(F)cc4c3n2CCNC4=O)c1 [Example 70, 1-(3-Dimethylaminomethyl-phenyl)-4-fluoro-8,9-dihydro-7H-2,7,9a-triaza-benzo[cd]azulen-6-one] | 4.4 nM | 215 to 217 °C (dec.) | –
9 | CNCc1cccc(-c2nc3cc(F)cc4c3n2CCNC4=O)c1 [Example 72, 1-(3-Methylaminomethyl-phenyl)-4-fluoro-8,9-dihydro-7H-2,7,9a-triaza-benzo[cd]azulen-6-one] | 3.5 nM | 196 to 198 °C | –
10 | CCOC(=O)c1nc2cccc3c2n1CCNC3=O [Example 74, 6-Oxo-6,7,8,9-tetrahydro-2,7,9a-triaza-benzo[cd]azulen-1-carboxylic Acid Ethyl Ester] | 33 nM | 237 to 239 °C (dec.) | –
11 | CCOC(OCC)c1ccc(-c2nc3cc(F)cc4c3n2CCNC4=O)cc1 [Example 79, 1-(4-Diethoxymethyl-phenyl)-4-fluoro-8,9-dihydro-7H-2,7,9a-triaza-benzo[cd]azulen-6-one] | 11 nM | 219 to 221 °C | –
12 | O=C1NCCn2c(-c3ncc[nH]3)nc3cccc1c32 [Example 80, 1-(1H-Imidazol-2-yl)-8,9-dihydro-7H-2.7,9a-triaza-benzo[cd]azulen-6-one] | 9 nM | 227 to 228 °C (dec.) | –
13 | O=C1NCCn2c(-c3ccc(CN4CCCC4)cc3)cc3cccc1c32 [Example 84, 6-(4-Pyrrolidin-1-ylmethyl-phenyl)-3,4-dihydro-2H-[1,4]diazepino[6,7,1-hi]indol-1-one] | 6.5 nM and 7.1 nM | 146 to 148 °C | –
14 | O=Cc1cccc(-c2cc3cccc4c3n2CCNC4=O)c1 [Example 85, 3-(1-Oxo-1,2,3,4-tetrahydro-[1,4]diazepino[6,7,1-hi]indol-6-yl)-benzaldehyde] | 12 nM and 13 nM | 192 to 194 °C | –
15 | CNCc1cccc(-c2cc3cccc4c3n2CCNC4=O)c1 [Example 87, 6-(3-Methylaminomethyl-phenyl)-3,4-dihydro-2H-[1,4]diazepino[6,7,1-hi]indol-1-one] | 6.7 nM and 7 nM | 128 to 130 °C | –
16 | O=C1NCCn2c(-c3cccc(CN4CCCC4)c3)cc3cccc1c32 [Example 88, 6-(3-Pyrrolidin-1-ylmethyl-phenyl)-3,4-dihydro-2H-[1,4]diazepino[6,7,1-hi]indol-1-one] | 12 nM and 13 nM | 158 to 160 °C | –
17 | N#Cc1c(-c2ccc(F)cc2)n2c3c(cccc13)C(=O)NCC2 [Example 91, 6-(4-Fluoro-phenyl)-1-oxo-1,2,3,4-tetrahydro-[1,4]diazepino[6,7,1-hi]indole-7-carbonitrile] | 54 nM | 248 to 250 °C | –
18 | NC(=O)c1c(-c2ccc(F)cc2)n2c3c(cccc13)C(=O)NCC2 [Example 92, 6-(4-Fluoro-phenyl)-1-oxo-1,2,3,4-tetrahydro-[1,4]diazepino[6,7,1-hi]indole-7-carboxylic Acid Amide] | 200 nM | 287 to 289 °C | –
19 | CC(=O)c1c(-c2ccc(F)cc2)n2c3c(cccc13)C(=O)NCC2 [Example 93, 7-Acetyl-6-(4-fluoro-phenyl)-3,4-dihydro-2H-[1,4]diazepino[6,7,1-hi]indol-1-one] | – | 275 to 276 °C | 306
20 | O=C1NCCn2c(-c3nccs3)nc3cccc1c32 [Example 94, 1-(Thiazol-2-yl)-8,9-dihydro-7H-2,7,9a-triaza-benzo[cd]azulen-6-one] | 4.3 nM | 271 to 276 °C | –

Continued, in another order:

Row | Ki [1, 2] | melting point | SMILES | Ki ([1]; Inhibition Constant Ki (nM)) [nM]
21 | 10 nM | 223 to 225 °C | O=C1NCCn2c(-c3cccc(C4OCCO4)c3)nc3cccc1c32 [Example 55, (3-[1,3]Dioxolan-2-yl-phenyl)-8,9-dihydro-7H-2,7,9a-triaza-benzo[cd]azulen-6-one] | –
22 | 32 nM | 213 to 215 °C | CCOC(OCC)c1ccc(-c2nc3cccc4c3n2CCNC4=O)cc1 [Example 56, 1-(4-Diethoxymethyl-phenyl)-8,9-dihydro-7H-2,7,9a-triaza-benzo[cd]azulen-6-one] | –
23 | 6.2 nM | 92 °C (dec.) | O=C1NCCn2c(-c3cccc(CN4CCCC4)c3)nc3cccc1c32 [Example 60, 1-(3-Pyrrolidin-1-ylmethyl-phenyl)-8,9-dihydro-7H-2,7,9a-triaza-benzo[cd]azulen-6-one] | –
24 | 6.2 nM | 121 to 122 °C | O=C1NCCn2c(-c3cccc(Oc4cccc(C(F)(F)F)c4)c3)nc3cccc1c32 [Example 61, 1-[3-(3-Trifluoromethyl-phenoxy)-phenyl]-8,9-dihydro-7H-2,7,9a-triaza-benzo[cd]azulen-6-one] | –
25 | 9.3 nM | 205 to 208 °C | O=C1NCCn2c(-c3cccc(Cc4ccccc4)c3)nc3cccc1c32 [Example 67, 1-(3-Benzylphenyl)-8,9-dihydro-7H-2,7,9a-triaza-benzo[cd]azulen-6-one] | –
26 | 13 nM | 266 to 268 °C | CN(C)c1cc(-c2nc3cccc4c3n2CCNC4=O)ccn1 [Example 71, 1-(2-Dimethylamino-pyridin-4-yl)-8,9-dihydro-7H-2,7,9a-triaza-benzo[cd]azulen-6-one] | –
27 | 10 nM | 283 to 284 °C (dec.) | N#Cc1cccc(-c2nc3cccc4c3n2CCNC4=O)c1 [Example 73, 3-(6-Oxo-6,7,8,9-tetrahydro-2,7,9a-triaza-benzo[cd]azulen-1-yl)-benzonitrile] | –
28 | 5.2 nM | 259 to 264 °C | O=C1NCCn2c(-c3ccc(Oc4ccccc4)cc3)nc3cccc1c32 [Example 78, 1-(4-Phenoxyphenyl)-8,9-dihydro-7H-2,7,9a-triaza-benzo[cd]azulen-6-one] | –
29 | 6.2 nM | 327 to 332 °C (dec.) | O=C1NCCn2c(-c3ccc[nH]3)nc3cccc1c32 [Example 95, 1-(1H-Pyrrol-2-yl)-8,9-dihydro-7H-2,7,9a-triaza-benzo[cd]azulen-6-one] | –
30 | 1.6 nM | 273 to 275 °C | O=C1NCCn2c(-c3ccc(CO)cc3)nc3cc(F)cc1c32 [Example 97, 4-Fluoro-1-(hydroxymethyl-phenyl)-8,9-dihydro-7H-2,7,9a-triaza-benzo[cd]azulen-6-one] | –
31 | 2.7 nM | 138 to 140 °C | CCOCCNCc1ccc(-c2nc3cccc4c3n2CCNC4=O)cc1 [Example 100, 1-{4-[(2-Ethoxyethylamino)-methyl]-phenyl}-8,9-dihydro-7H-2,7,9a-triaza-benzo[cd]azulen-6-one] | –
32 | 5.6 nM | 198 to 202 °C (dec.) | N#CCNCc1ccc(-c2nc3cccc4c3n2CCNC4=O)cc1 [Example 102, [4-(6-Oxo-6,7,8,9-tetrahydro-2,7,9a-triaza-benzo[cd]azulen-1-yl)-benzylamino]-acetonitrile] | –
33 | 6.2 nM | 221 to 223 °C | O=C1NCCn2c(-c3ccc(CNCC(F)(F)F)cc3)nc3cccc1c32 [Example 103, 1-4-[(2,2,2-Trifluoro-ethylamino)-methyl]-phenyl-8,9-dihydro-7H-2,7,9a-triaza-benzo[cd]azulen-6-one] | –
34 | 4.5 nM | 126 °C (dec.) | C#CCNCc1ccc(-c2nc3cccc4c3n2CCNC4=O)cc1 [Example 104, 1-(4-Prop-2-ynylaminomethyl-phenyl)-8,9-dihydro-7H-2,7,9a-triaza-benzo[cd]azulen-6-one] | –
35 | 6.2 nM | 266 °C (dec.) | O=C1NCCn2c(-c3ccc(CN4CCSCC4)cc3)nc3cccc1c32 [Example 105, 1-(4-Thiomorpholin-4-ylmethyl-phenyl)-8,9-dihydro-7H-2,7,9a-triaza-benzo[cd]azulen-6-one] | –
36 | 8 nM | 308 to 313 °C | Cc1ccc(-c2nc(-c3nc4cccc5c4n3CCNC5=O)cs2)cc1 [Example 106, 1-(2-p-Tolyl-thiazol-4-yl)-8,9-dihydro-7H-2,7,9a-triaza-benzo[cd]azulen-6-one] | –
